Experimental data reported in patent publication US20070249607A1, “NK-1 AND SEROTONIN TRANSPORTER INHIBITORS” (Bristol-Myers Squibb Company, priority 2006, published 2007).
Where two headings read alike, the source gives them in different places.

Columns and labels:
[1] = biological target: T1, neurokinin-1 (NK-1) receptor (Homo sapiens, UniProt P25103); assay: NK-1 Binding assay ([125I] Substance P competition, U373 cell membranes); conditions: U373 membranes, [125I] Substance P displacement, read-out: NK-1 IC50
T1 construct: a human glioblastoma-astrocytoma cell line that endogenously expresses the neurokinin-1 (NK-1) receptor; endogenous in cells; host or cells: U373 human glioblastoma-astrocytoma cells (membranes)
T1 sequence (P25103 whole entry): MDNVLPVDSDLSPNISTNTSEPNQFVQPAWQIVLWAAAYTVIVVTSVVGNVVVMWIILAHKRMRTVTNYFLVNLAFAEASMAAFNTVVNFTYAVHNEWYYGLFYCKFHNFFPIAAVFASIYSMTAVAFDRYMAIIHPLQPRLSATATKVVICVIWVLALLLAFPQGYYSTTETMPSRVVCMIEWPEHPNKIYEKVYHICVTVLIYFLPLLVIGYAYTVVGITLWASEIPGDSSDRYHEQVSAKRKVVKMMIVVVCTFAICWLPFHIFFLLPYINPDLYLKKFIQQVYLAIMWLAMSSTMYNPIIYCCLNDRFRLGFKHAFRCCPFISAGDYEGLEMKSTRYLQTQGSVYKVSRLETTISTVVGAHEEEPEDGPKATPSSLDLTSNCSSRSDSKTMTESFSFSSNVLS
Protocol: NK-1 Binding assay. U373 cells, a human glioblastoma-astrocytoma cell line that endogenously expresses the neurokinin-1 (NK-1) receptor, were grown in a monolayer culture at 37° C. in 5% CO2 and fed with Minimum Essential Medium (MEM) supplemented with 10% fetal bovine serum. Membranes were prepared as follows: Cells were washed twice with ice-cold phosphate-buffered saline (pH 7.4) and then incubated for 5-10 minutes with ice-cold 10 mM Tris buffer (pH 7.4) containing 5 mM EDTA. Cells were removed from plates, homogenized, and centrifuged at 32,000×g for 20 minutes. The resulting supernatant was discarded, and the pellet resuspended by homogenization in 50 mM Tris buffer (pH 7.4) containing 1 mM EDTA and centrifuged at 32,000×g for 20 minutes. The resulting supernatant was discarded, and the pellet resuspended by homogenization in NK-1 binding assay buffer (50 mM Tris-HCL (pH 7.4), 3 mM MnCl2, 200 μg/ml BSA, 5 μg/ml chymostatin, 40 μg/ml bacitracin and 4 μg/ml leupeptin).
On the day of an experiment the membrane preparation was thawed, homogenized and diluted with NK-1 binding assay buffer to the appropriate concentration. […] Substance P, at a concentration of […], and concentrations of drugs ranging from 10000 to 0.01 nM. Samples were incubated for 30 min at 20° C. then filtered through GF/B glass fiber filters (pretreated with 1% polyethyleneimine and 0.3% Triton X-100) using a Brandel cell harvester. The filters were then washed with 10 ml ice cold 50 mM Tris-HCL (pH 7.4) containing 3 mM MgCl2. […] The amount of radioligand bound in the presence and absence of competitor was analyzed by plotting (-)log drug concentration versus the amount of radioligand specifically bound. The midpoint of the displacement curve (IC50, nM), signifies the potency.

[2] = biological target: T2, human serotonin transporters (Homo sapiens, UniProt P31645); assay: Serotonin transporter binding assay ([3H]-citalopram competition, HEK-hSERT cell membranes)
T2 construct: expressed in transfected cells
T2 sequence (P31645 whole entry): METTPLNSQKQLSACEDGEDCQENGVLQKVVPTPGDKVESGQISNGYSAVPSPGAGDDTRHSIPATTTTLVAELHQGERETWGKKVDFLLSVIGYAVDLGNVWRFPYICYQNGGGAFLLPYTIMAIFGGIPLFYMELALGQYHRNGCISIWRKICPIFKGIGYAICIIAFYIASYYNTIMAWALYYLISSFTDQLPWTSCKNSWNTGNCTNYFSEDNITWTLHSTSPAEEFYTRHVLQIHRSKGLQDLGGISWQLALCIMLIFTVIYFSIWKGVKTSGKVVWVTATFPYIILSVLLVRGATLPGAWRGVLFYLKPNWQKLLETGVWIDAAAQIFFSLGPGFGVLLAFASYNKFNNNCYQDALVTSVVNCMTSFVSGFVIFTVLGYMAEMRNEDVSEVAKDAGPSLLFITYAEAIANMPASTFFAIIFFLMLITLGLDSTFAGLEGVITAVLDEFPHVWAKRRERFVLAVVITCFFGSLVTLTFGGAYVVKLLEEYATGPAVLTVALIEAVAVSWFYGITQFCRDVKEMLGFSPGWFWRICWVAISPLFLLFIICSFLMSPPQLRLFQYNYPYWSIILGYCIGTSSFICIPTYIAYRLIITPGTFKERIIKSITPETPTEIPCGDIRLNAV
Protocol: Serotonin transporter binding assay. HEK-293 cells that stably express human serotonin transporters (HEK-hSERT cells) were grown at 37° C. in 5% CO2 as a monolayer in medium consisting of EMEM supplemented with 10% fetal bovine serum and G418 sulfate (500 μg/ml). To prepare membranes for radioligand binding experiments, cells were rinsed twice with phosphate-buffered saline (138 mM NaCl, 4.1 mM KCl, 5.1 mM Na2PO4, 1.5 mM KH2PO4, 11.1 mM glucose, pH 7.4). Cells were transferred from plates to polypropylene tubes (16×100 mm), centrifuged at 1,200×g for 5 min and were frozen at −80° C. until assay. Following centrifugation, pellets were resuspended by homogenization in buffer consisting of 50 mM Tris (pH 7.7 at 25° C.), 120 mM NaCl and 5 mM KCl and then centrifuged at 32,000×g for 10 min. Following centrifugation, supernatants were discarded and pellets were resuspended in buffer consisting of 50 mM Tris (pH 7.4 at 25° C.), 150 mM NaCl and 5 mM KCl. Membrane homogenates (200 μl/plate) were incubated with 1 nM [^3H]-citalopram (specific activity=85 Ci/mmol) and increasing concentrations of test compounds for 1 hr at 25° C. in a total volume of 250 μl. The assay buffer consisted of 50 mM Tris (pH 7.4 at 25° C.), 120 mM NaCl and 5 mM KCl (pH 7.4 with conc. HCl). Plates were incubated for 1 hr at 25° C., then filtered through 0.5% PEI treated Whatman GF/B filters using a Brandel cell harvester. Filters were washed three times with 3 ml of ice-cold tris wash buffer. Non-specific binding was defined with 10 μM fluoxetine. Amount of radioligand bound in the presence and absence of competitor was analyzed by plotting (-)log drug concentration versus the amount of radioligand specifically bound. The midpoint of the displacement curve (IC50, nM), signifies the potency. Ki values can be calculated using the method of Cheng and Prusoff (Cheng and Prusoff, BiochemicalPharmacology, Vol 22, pp. 3099-3108, Pergamon Press (1973)).

[3] = Table 2, HEK-hSERT membranes, [3H]-citalopram displacement, read-out: SERT IC50
[4] = Table 1, HEK-hSERT membranes, [3H]-citalopram displacement, read-out: SERT IC50

| Compound | IC50 ([1]; Table 2) [nM] | IC50 [2, 3] [nM] | IC50 ([1]; Table 1) [nM] | IC50 [2, 4] [nM] | IC50 [2] [nM] |
| --- | --- | --- | --- | --- | --- |
| O=C(OCc1ccccc1)c1ccc(-c2cc(COCC3(c4ccccc4)CCNCC3)cc(C(F)(F)F)c2)cc1 | 0.01 to 100 | 0.01 to 100 |  |  |  |
| FC(F)(F)c1cc(COCC2(c3ccccc3)CCNCC2)cc(-c2ccco2)c1 |  |  | 0.01 to 100 | 0.01 to 100 |  |
| Fc1ccc(-c2cc(COCC3(c4ccccc4)CCNCC3)cc(C(F)(F)F)c2)cc1Cl |  |  | 0.01 to 100 | 0.01 to 100 |  |
| FC(F)(F)c1cc(COCC2(c3ccccc3)CCNCC2)cc(-c2cc(C(F)(F)F)cc(C(F)(F)F)c2)c1 |  |  | 100 to 300 | 100 to 300 |  |
| COc1c(F)cc(-c2cc(COCC3(c4ccccc4)CCNCC3)cc(C(F)(F)F)c2)cc1F | 0.01 to 100 | 0.01 to 100 |  |  |  |
| N#Cc1c(F)cc(-c2cc(COCC3(c4ccccc4)CCNCC3)cc(C(F)(F)F)c2)cc1F | 0.01 to 100 | 0.01 to 100 |  |  |  |
| COC(=O)c1cc(-c2cc(COCC3(c4ccccc4)CCNCC3)cc(C(F)(F)F)c2)cc([N+](=O)[O-])c1 | > 300 | 0.01 to 100 |  |  |  |
| COc1ccc(-c2ccc(C#N)nc2)cc1COCC1(c2ccccc2)CCNCC1 |  |  | 100 to 300 | 0.01 to 100 |  |
| COc1ccc(-c2cc(COCC3(c4ccccc4)CCNCC3)cc(C(F)(F)F)c2)cc1C | 0.01 to 100 | 0.01 to 100 |  |  |  |
| COc1cc(F)c(-c2cc(COCC3(c4ccccc4)CCNCC3)cc(C(F)(F)F)c2)cc1F | 0.01 to 100 | 0.01 to 100 |  |  |  |
| Fc1ccc(F)c(-c2cc(COCC3(c4ccccc4)CCNCC3)cc(C(F)(F)F)c2)c1 | 0.01 to 100 | 0.01 to 100 |  |  |  |
| FC(F)(F)c1cc(COCC2(c3ccccc3)CCNCC2)cc(-c2ccc3ccccc3c2)c1 |  |  | 100 to 300 | 100 to 300 |  |
| Cn1cc(-c2cc(COCC3(c4ccccc4)CCNCC3)cc(C(F)(F)F)c2)cn1 | 0.01 to 100 | 0.01 to 100 |  |  |  |
| CN1CCC(COCc2cc(-c3cccc(F)c3)cc(C(F)(F)F)c2)(c2ccccc2)CC1 | 0.01 to 100 |  |  |  | 0.01 to 100 |
| CC(=O)Nc1ccc(-c2cc(COCC3(c4ccccc4)CCNCC3)cc(C(F)(F)F)c2)cc1 | 0.01 to 100 | 0.01 to 100 |  |  |  |
| CN1CCC(COCc2cc(-c3ccc(C#N)cc3)cc(C(F)(F)F)c2)(c2cccc(C(F)(F)F)c2)CC1 | 0.01 to 100 |  |  |  | 0.01 to 100 |
| N#Cc1ccc(-c2cc(COCC3(c4ccc(Br)cc4)CCNCC3)cc(C(F)(F)F)c2)cc1 | 0.01 to 100 | 0.01 to 100 |  |  |  |
| FC(F)(F)c1cc(COCC2(c3ccccc3)CCNCC2)cc(-c2nccs2)c1 |  |  | 0.01 to 100 | 0.01 to 100 |  |
| COc1cccc(C2(COCc3cc(-c4ccc(C#N)cc4)cc(C(F)(F)F)c3)CCN(C)CC2)c1 | 0.01 to 100 |  |  |  | 0.01 to 100 |
| COC(=O)c1cccc(-c2cc(COCC3(c4ccccc4)CCNCC3)cc(C(F)(F)F)c2)c1 | 100 to 300 | 0.01 to 100 |  |  |  |
| Cc1cccc(C)c1-c1cc(COCC2(c3ccccc3)CCNCC2)cc(C(F)(F)F)c1 |  |  | 100 to 300 | 100 to 300 |  |
| COc1cc(-c2cc(COCC3(c4ccccc4)CCNCC3)cc(C(F)(F)F)c2)ccc1O | 0.01 to 100 | 0.01 to 100 |  |  |  |
| Fc1cc(-c2cc(COCC3(c4ccccc4)CCNCC3)cc(C(F)(F)F)c2)c(Cl)cn1 |  |  | 0.01 to 100 | 0.01 to 100 |  |
| Fc1ccc(-c2cc(F)cc(COCC3(c4ccccc4)CCNCC3)c2)cc1 | > 300 | 0.01 to 100 |  |  |  |
| N#Cc1ccc(-c2cc(COCC3(c4cccc(Br)c4)CCNCC3)cc(C(F)(F)F)c2)cc1 | 0.01 to 100 | 0.01 to 100 |  |  |  |
| OCc1ccccc1-c1cc(COCC2(c3ccccc3)CCNCC2)cc(C(F)(F)F)c1 |  |  | 100 to 300 | 0.01 to 100 |  |
| FC(F)(F)c1cc(COCC2(c3ccccc3)CCNCC2)cc(-c2ccccc2C(F)(F)F)c1 |  |  | > 300 | 100 to 300 |  |
| FC(F)(F)c1cc(COCC2(c3ccccc3)CCNCC2)cc(-n2nnnc2C(F)(F)F)c1 |  |  | > 300 | 0.01 to 100 |  |
| COc1ccc(-c2cc(COCC3(c4ccccc4)CCNCC3)cc(C(F)(F)F)c2)nn1 | 0.01 to 100 | 0.01 to 100 |  |  |  |
| COc1ccc(F)cc1-c1cc(COCC2(c3ccccc3)CCNCC2)cc(C(F)(F)F)c1 | 100 to 300 | 0.01 to 100 |  |  |  |
